Assay results reported in US6800653B2, “Epothilone derivatives” (priority 2001, dated 2004).
pEC50, pIC50: −log10 of the molar value. Where two headings read alike, the source gives them in different places.

What was measured:
[1] = system: HCT-116 human colon carcinoma cells; test: Cytotoxicity (in vitro) by MTS assay; assay type: cell-based; conditions: read-out: HTC-116 assay IC50
Experimental: Cytoxicity was assessed in HCT-116 human colon carcinoma cells by MTS (3-(4,5-dimethylthiazol-2-yl)-5-(3-carboxymethoxyphenyl)-2-(4-sulphenyl)-2H-tetrazolium, inner salt) assay as reported in T. L. Riss, et. al., “Comparison of MTT, XTT, and a novel tetrazolium compound MTS for in vitro proliferation and chemosensitivity assays.,” Mol. Biol. Cell 3 (Suppl.): 184a, 1992. Cells were plated at 4,000 cell/well in 96 well microtiter plates and 24 hours later drugs were added and serial diluted. The cells were incubated at 37° form 72 hours at which time the tetrazolium dye, MTS at 333 μg/ml (final concentration), in combination with the electron coupling agent phenazine methosulfate at 25 μM (final concentration) was added. A dehydrogenase enzyme in live cells reduces the MTS to a form that absorbs light at […] which can be quantitated spectrophotometrically. The greater the absorbance the greater the number of live cells. The results are expressed as an IC50, which is the drug concentration required to inhibit cell proliferation (i.e. absorbance at 450 nm) to 50% of that of untreated control cells.

calf brain tubulin = test: In vitro tubulin polymerization; assay type: biochemical; conditions: interpolated concentration inducing an initial slope of 0.01 OD/minute; 1.0 mg/ml microtubule protein, 37°; read-out: Tubulin assay EC0.01
Experimental: In vitro Tubulin Polymerization
Twice cycled (2×) calf brain tubulin was prepared following the procedure of Williams and Lee (see Williams, R. C., Jr., and Lee, J. C. Preparation of tubulin from brain. Methods in Enzymology 85, Pt. D: 376-385, 1982) and stored in liquid nitrogen before use. Quantification of tubulin polymerization potency is accomplished following a modified procedure of Swindell, et al., (see Swindell, C. S., Krauss, N. E., Horwitz, S. B., and Ringel, L. Biologically active taxol analogues with deleted A-ring side chain substituents and variable C-2′ configurations. J. Med. Chem. 34: 1176-1184, 1991). These modifications, in part, result in the expression of tubulin polymerization potency as an effective concentration for any given compound. For this method, different concentrations of compound in polymerization buffer (0.1M MES, 1 mM EGTA, 0.5 mM MgCl2, pH 6.6) are added to tubulin in polymerization buffer at 37° in microcuvette wells of a Beckman (Beckman Instruments) Model DU 7400 UV spectrophotometer. A final microtubule protein concentration of 1.0 mg/ml and compound concentration of generally 2.5, 5.0, and 10 μM are used. Initial slopes of OD change measured every 10 seconds were calculated by the program accompanying the instrument after initial and final times of the linear region encompassing at least 3 time points were manually defined. Under these conditions linear variances were generally <10^−6, slopes ranged from 0.03 to 0.002 absorbance unit/minute, and maximum absorbance was 0.15 absorbance units. Effective concentration (EC0.01) is defined as the interpolated concentration capable of inducing an initial slope of 0.01 OD/minute rate and is calculated using the formula: EC0.01=concentration/slope. EC0.01 values are expressed as the mean with standard deviation obtained from 3 different concentrations. EC0.01 values for the compounds in this invention fall in the range 0.01-1000 μM.

[2] = HCT-116, 72 hours incubation, MTS

Compound	pIC50 ([1]; HCT-116, 72 h)	pEC50 (calf brain tubulin)	pIC50 [1, 2]
C/C(=C\c1csc(C)n1)[C@@H]1C[C@@H]2NC2CCCC(C)[C@H](O)[C@@H](C)C(=O)C(C)(C)[C@@H](O)CC(=O)O1 (relative stereo) [Example 1, [1S-[1R*,3R*(E),7R*,10S*,11R*,12R*,16S*]]-7,11-Dihydroxy-8,8,10,12-tetramethyl-3-[1-methyl-2-(2-methyl-4-thiazolyl)ethenyl]-4-oxa-17-azabicyclo[14.1.0]heptadecane-5,9-dione.]	8.57	4.85	
C/C(=C\c1csc(C)n1)[C@@H]1C[C@H]2C(CCCC(C)[C@H](O)[C@@H](C)C(=O)C(C)(C)[C@@H](O)CC(=O)O1)N2C(=O)CN(C)C (relative stereo) [Example 4, [1S-[1R*,3R*(E),7R*,10S*,11R*,12R*,16S*]]-17-[Dimethylamino)acetyl]-7,11-dihydroxy-8,8,10,12-tetramethyl-3-[1-methyl-2(2-methyl-4-thiazolyl)ethenyl]-4-oxa-17-azabicyclo[14.1.0]heptadecane-5,9-dione.]		< 3.00	
C/C(=C\c1csc(C)n1)C1CC2[C@@H](CCC[C@H](C)[C@H](O)[C@@H](C)C(=O)C(C)(C)[C@@H](O)CC(=O)O1)N2C(=O)CC(C)C (relative stereo) [Example 5, [1S-[1R*,3R*(E),7R*,10S*,11R*,12R*,16S*]]-7,11-Dihydroxy-8,8,10,12-tetramethyl-3-[1-methyl-2-(2-methyl-4-thiazolyl)ethenyl]-17-(3-methyl-1-oxobutyl)-4-oxa-17-azabicyclo[14.1.0]heptadecane-5,9-dione.]		5.46	7.39
C/C(=C\c1csc(C)n1)C1CC2[C@@H](CCC[C@H](C)[C@H](O)[C@@H](C)C(=O)C(C)(C)[C@@H](O)CC(=O)O1)[N@@]2S(C)(=O)=O (relative stereo) [Example 6, [1S-[1R*,3R*(E), 7R*,10S,11R*,12R*,16S*]]-17-N-Methylsulfonyl-7,11-dihydroxy-8,8,10,12-tetramethyl-3-[1-methyl-2-(2-methyl-4-thiazolyl)ethenyl]-4-oxa-17-azabicyclo[14.1.0]heptadecane-5,9-dione.]		4.85	8.68
CCNC(=O)N1C2CC(/C(C)=C/c3csc(C)n3)OC(=O)C[C@H](O)C(C)(C)C(=O)[C@H](C)[C@@H](O)[C@@H](C)CCC[C@H]21 (relative stereo) [Example 7, 1S-[1R*,3R*(E),7R*,10S,11R*,12R*,16S*]]-N-Ethyl-7,11-dihydroxy-8,8,10,12-tetramethyl-3-[1-methyl-2-(2-methyl-4-thiazolyl)ethenyl]-4-oxa-17-azabicyclo[14.1.0]heptadecane-5,9-dione-17-carboxamide.]		< 3.00	
C/C(=C\c1csc(C)n1)C1CC2[C@@H](CCC[C@H](C)[C@H](O)[C@@H](C)C(=O)C(C)(C)[C@@H](O)CC(=O)O1)[N@@]2C (relative stereo) [Example 8, [1S-[1R*,3R*(E),7R*,10S*,11R*,12R*,16S*]]-7,11-Dihydroxy-8,8,10,12,17-pentamethyl-3-[1-methyl-2-(2-methyl-4-thiazolyl)ethenyl]-4-oxa-17-azabicyclo[14.1.0]heptadecane-5,9-dione]	9.89	5.59	
C/C(=C\c1csc(C)n1)[C@@H]1C[C@H]2C(CCCC(C)[C@H](O)[C@@H](C)C(=O)C(C)(C)[C@@H](O)CC(=O)O1)[N@@]2Cc1ccccc1 (relative stereo) [Example 15, [1S-[1R*,3R*(E),7R*,10S,11R*,12R*,16S*]]-17-Benzyl-7,11-dihydroxy-8,8,10,12-tetramethyl-3-[1-methyl-2-(2-methyl-4-thiazolyl)ethenyl]-4-oxa-17-azabicyclo[14.1.0]heptadecane-5,9-dione.]	7.64	4.46	
C/C(=C\c1csc(C)n1)[C@@H]1C[C@H]2C(CCCC(C)[C@H](O)[C@@H](C)C(=O)C(C)(C)[C@@H](O)CC(=O)O1)[N@]2S(N)(=O)=O (relative stereo) [Example 16, [1S-[1R*,3R*(E),7R*,10S,11R*,12R*,16S*]]-17-Sulfonylurea-7,11-dihydroxy-8,8,10,12-tetramethyl-3-[1-methyl-2-(2-methyl-4-thiazolyl)ethenyl]-4-oxa-17-azabicyclo[14.1.0]heptadecane-5,9-dione.]		4.55	7.44
CNS(=O)(=O)[N@@]1C2CCCC(C)[C@H](O)[C@@H](C)C(=O)C(C)(C)[C@@H](O)CC(=O)O[C@H](/C(C)=C/c3csc(C)n3)C[C@@H]21 (relative stereo) [Example 17]		5.64	8.11
C/C(=C\c1csc(C)n1)C1CC2[C@@H](CCC[C@H](C)[C@H](O)[C@@H](C)C(=O)C(C)(C)[C@@H](O)CC(=O)O1)[N@@]2S(=O)(=O)N(C)C (relative stereo) [Example 18, [1S-[1R*,3R*(E),7R*,10S*,11R*,12R*,16S*]]-7,11-Dihydroxy-N,N,8,8,10,12-hexamethyl-3-[1-methyl-2-(2-methyl-4-thiazolyl)ethenyl]-5,9-dioxo-4-oxa-17-azabicyclo[14.1.0]heptadecane-17-sulfonamide.]		6.00	9.70
C/C(=C\c1csc(C)n1)C1CC2[C@@H](CCC[C@H](C)[C@H](O)[C@@H](C)C(=O)C(C)(C)[C@@H](O)CC(=O)O1)[N@@]2S(=O)(=O)N1CCOCC1 (relative stereo) [Example 19, [1S-[1R*,3R*(E),7R*,10S,11R*,12R*,16S*]]-17-Morpholinosulfonyl-7,11-dihydroxy-8,8,10,12-tetramethyl-3-[1-methyl-2-(2-methyl-4-thiazolyl)ethenyl]-4-oxa-17-azabicyclo[14.1.0]heptadecane-5,9-dione.]		3.34	6.80
C/C(=C\c1csc(C)n1)C1CC2[C@@H](CCC[C@H](C)[C@H](O)[C@@H](C)C(=O)C(C)(C)[C@@H](O)CC(=O)O1)N2C(=O)Oc1ccccc1 (relative stereo) [Example 20, [1S-[1R*,3R*(E),7R*,10S,11R*,12R*,16S*]]-7,11-dihydroxy-8,8,10,12-tetramethyl-3-[1-methyl-2-(2-methyl-4-thiazolyl)ethenyl]-4-oxa-17-azabicyclo[14.1.0]heptadecane-5,9-dione-17-carboxylic acid phenyl ester.]		5.96	8.74
CC(=O)N1C2CC(/C(C)=C/c3csc(C)n3)OC(=O)C[C@H](O)C(C)(C)C(=O)[C@H](C)[C@@H](O)[C@@H](C)CCC[C@H]21 (relative stereo) [Example 21, [1S-[1R*,3R*(E),7R*,10S,11R*,12R*,16S*]]-17-Acetyl-7,11-dihydroxy-8,8,10,12-tetramethyl-3-[1-methyl-2-(2-methyl-4-thiazolyl)ethenyl]-4-oxa-17-azabicyclo[14.1.0]heptadecane-5,9-dione.]		5.92	9.05
CC(=Cc1csc(C)n1)C1CC2OC2CCCC(C)C(O)C(C)C(=O)C(C)(C)C(O)CC(=O)O1 (stereo not shown) [Epothilone A, reference compound]			8.36
CC(=Cc1csc(C)n1)C1CC2OC2(C)CCCC(C)C(O)C(C)C(=O)C(C)(C)C(O)CC(=O)O1 (stereo not shown) [Epothilone B, reference compound]	9.10		
CCCS(=O)(=O)N1C2CCCC(C)C(O)C(C)C(=O)C(C)(C)C(O)CC(=O)OC(C(C)=Cc3csc(C)n3)CC21 [Example 25, [1S-[1R*,3R*(E),7R*,10S,11R*,12R*,16S*]]-17-N-n-Propylsulfonyl-7,11-dihydroxy-8,8,10,12-tetramethyl-3-[1-methyl-2-(2-methyl-4-thiazolyl)ethenyl]-4-oxa-17-azabicyclo[14.1.0]heptadecane-5,9-dione.]			7.03
CC(=Cc1csc(C)n1)C1CC2C(CCCC(C)C(O)C(C)C(=O)C(C)(C)C(O)CC(=O)O1)N2S(=O)(=O)c1cccs1 (stereo not drawn) [Example 26, [1S-[1R*,3R*(E),7R*,10S*,11R*,12R*,16S*]]-17-(2-thienyl)sulfonyl-7,11-dihydroxy-8,8,10,12-tetramethyl-3-[1-methyl-2-(2-methyl-4-thiazolyl)ethenyl]-4-oxa-17-azabicyclo[14.1.0]heptadecane-5,9-dione.]			7.52
